Reference: US10723741B1, “DNA polymerase IIIC inhibitors and use thereof” (Acurx Pharmaceuticals, LLC, priority 2018, dated 2020)
In brackets after ≈: the same amount, converted by molar mass.

Experiments:
Format in all cases: cell-based
[1] = tested on: Staphylococcus aureus NRS384 (MRSA); test: Broth microdilution MIC, S. aureus NRS384 (MRSA); conditions: Staphylococcus aureus; broth microdilution, 37° C., 20 hours; read-out: MIC NRS 384 (MRSA)
Excerpt: (§1) Bacteria tested are Staphylococcus aureus NRS384 (a methicillin-resistant Staphylococcus aureus, MRSA), Staphylococcus aureus ATCC 29213 (a methicillin-sensitive Staphylococcus aureus, MSSA), Streptococcus pneumoniae ATCC 49619, Enterococcus faecalis ATCC 29212, Enterococcus faecium ATCC 700221 (a vancomycin-resistant enterococcus, VRE), Bacillus subtilis ATCC 6633, and Escherichia coli ATCC 25922.
(§2) Staphylococcus aureus NRS384 was obtained from NARSA (Network on Antimicrobial Resistance in Staphylococcus aureus, now the strain collection is in BEI resources). Other bacterial isolates were from ATCC (The American Type Culture Collection). Upon receiving the bacteria samples from aforementioned institutes, the bacteria were cultured according to the manuals provided by the suppliers. The bacteria were stored in 25% glycerol (final concentration) at −80° C.
(§3) On the day of testing, the compounds were dissolved in pure DMSO (Sigma 276855-1L) to […] as stock. In a v-bottom 96-well plate (Axygen-wipp02280), 20 μl DMSO was added into well 2 to well 12 by manual pipetting. Into well 1, 12.8 μL of compound DMSO stock (20 mg/ml) was added and mixed with 27.2 μl DMSO by pipetting. Two fold serial dilutions were performed by transferring and mixing 20 μl of solution from well 1 to well 2, then well 2 to well 3 and so forth until well 11. The well 12 was loaded with 20 μl DMSO without compounds. This was drug ‘mother plate’. From well 1 to well 12, the drug concentrations in the mother plate were […] in DMSO. A multi-pipette was used to perform the serial dilutions. The concentration may be adjusted according to the potency of the compounds. An Echo® Acoustic liquid handling system may be used to replace manual pipetting to make the daughter plates.
(§4) One day prior to the day of MIC testing, bacterial strains were streaked out from −80° C. glycerol stocks onto MHA plates and incubated at 37° C. for 20 hours. Streptococcus pneumoniae was streaked on blood agar and incubated at 37° C. in 5% CO2. The single colonies were picked by using an inoculation loop (Greiner-731175) and suspended into 5 ml sterile saline. The turbidity of the suspension was adjusted to 0.10 (Siemens MicroScan turbidity meter), equal to ˜1.0×10^8 cfu/ml. The bacterial suspension was diluted 200× in corresponding test medium (Table 1). This was used to inoculate daughter plates.
(§5) For preparing u-bottom 96-well ‘daughter plates’ (Costar 3788), an aliquot of 1 μl solution from mother plate was then replicating transferred into the daughter plate using a multi-pipette.
(§6) An aliquot of 99 μl of the bacterial suspension was inoculated into each well of the daughter plates using a multi-pipette. Each well contained ˜5.0×10^5 cfu/ml bacteria, 1% DMSO and serially diluted compounds at 64, 32, 16, 8, 4, 2, 1, 0.5, 0.25, 0.125, 0.0625 and 0 μg/ml from well 1 to well 12 respectively, in 100 μl corresponding test medium.
(§7) The plates were incubated in ambient atmosphere and in a 37° C. incubator for 20 hours.
(§8) Compounds of the present invention were tested for antibacterial activity against a variety of bacterial organism including Bacillus subtilis, Staphylococcus aureus, Enterococcus faecalis, Enterococcus faecium, Streptococcus pneumoniae and Escherichia coli. […] Compounds described in Examples 2, 44, 53, 56, 90, 134, 212, 213, 214, 218, 222, 304, 305, and 307 had MIC of ≤1 μg/ml against S. aureus NRS 384 (MRSA) (μg/ml) and E. faecium ATCC 700221 (VRE) (μg/ml).

[2] = tested on: Staphylococcus aureus ATCC 29213 (MSSA); test: Broth microdilution MIC, S. aureus ATCC 29213 (MSSA); conditions: broth microdilution, 37° C., 20 hours, read-out: MIC S. aureus ATCC 29213 (MSSA)
Excerpt: as §1, §2, §3, §4, §5, §6, §7, §8

[3] = tested on: Enterococcus faecalis ATCC 29212; test: Broth microdilution MIC, E. faecalis ATCC 29212; conditions: ATCC29212, broth microdilution, 37° C., 20 hours, read-out: MIC E. faecalis ATCC 29212
Excerpt: as §1, §2, §3, §4, §5, §6, §7, §8

[4] = tested on: Enterococcus faecium ATCC 700221 (VRE); test: Broth microdilution MIC, E. faecium ATCC 700221 (VRE); conditions: Enterococcus faecium; broth microdilution, 37° C., 20 hours; read-out: MIC E. faecium ATCC 700221 (VRE)
Excerpt: as §1, §2, §3, §4, §5, §6, §7, §8

[5] = tested on: Streptococcus pneumoniae ATCC 49619; test: Broth microdilution MIC, S. pneumoniae ATCC 49619; conditions: ATCC49619, broth microdilution, 37° C., 20 hours, read-out: MIC S. pneumoniae ATCC 49619
Excerpt: as §1, §2, §3, §4, §5, §6, §7, §8

[6] = tested on: Bacillus subtilis ATCC 6633; test: Broth microdilution MIC, B. subtilis ATCC 6633; conditions: ATCC6633, broth microdilution, 37° C., 20 hours, read-out: MIC B. subtilis ATCC 6633
Excerpt: as §1, §2, §3, §4, §5, §6, §7, §8

[7] = tested on: Escherichia coli ATCC 25922; test: Broth microdilution MIC, E. coli ATCC 25922 (MHIIB w & w/o 4 mM EDTA); conditions: broth microdilution, 37° C., 20 hours; for MIC: Escherichia coli, ATCC25922, without EDTA, read-out: MIC E. coli ATCC 25922; for MIC E. coli ATCC 25922 + 4 mM EDTA: with 4 mM EDTA
Excerpt: as §1, §2, §3, §4, §5, §6, §7, §8

| SMILES | MIC [1] [µg/mL] | MIC [2] [µg/mL] | MIC [3] [µg/mL] | MIC [4] [µg/mL] | MIC [5] [µg/mL] | MIC [6] [µg/mL] | MIC [7] [µg/mL] | MIC E. coli ATCC 25922 + 4 mM EDTA [7] |
| --- | --- | --- | --- | --- | --- | --- | --- | --- |
| Cn1ncc2nc(NCc3ccc(Cl)cc3Cl)[nH]c(=O)c21 [Compound 28, 5-((2,4-Dichlorobenzyl)amino)-1-methyl-1H-pyrazolo[4,3-d]pyrimidin-7(6H)-one] | > 64 | > 64 | > 64 | 16 (≈ 49.4 µM) | 64 (≈ 197 µM) | 64 (≈ 197 µM) | > 64 | 64 µg/mL |
| Cn1ncc2nc(NCc3cccc(Cl)c3Cl)[nH]c(=O)c21 [Compound 29, 5-((2,3-Dichlorobenzyl)amino)-1-methyl-1H-pyrazolo[4,3-d]pyrimidin-7(6H)-one] | > 64 | > 64 | > 64 | > 64 | > 64 | > 64 | > 64 | >64 µg/mL |
| Cn1ncc2nc(NCc3c(Cl)cccc3Cl)[nH]c(=O)c21 [Compound 30, 5-((2,6-Dichlorobenzyl)amino)-1-methyl-1H-pyrazolo[4,3-d]pyrimidin-7(6H)-one] | > 64 | > 64 | > 64 | > 64 | > 64 | > 64 | > 64 | >64 µg/mL |
| Cc1ccc(CNc2nc3cnn(C)c3c(=O)[nH]2)cc1Cl [Compound 31, 5-((3-Chloro-4-methylbenzyl)amino)-1-methyl-1H-pyrazolo[4,3-d]pyrimidin-7(6H)-one] | 4 (≈ 13.2 µM) | 4 (≈ 13.2 µM) | 8 (≈ 26.3 µM) | 4 (≈ 13.2 µM) | 8 (≈ 26.3 µM) | 2 (≈ 6.58 µM) | > 64 | 16 µg/mL |
| COc1ccc(CNc2nc3cnn(C)c3c(=O)[nH]2)cc1OC [Compound 32, 5-((3,4-Dimethoxybenzyl)amino)-1-methyl-1H-pyrazolo[4,3-d]pyrimidin-7(6H)-one] | > 64 | > 64 | > 64 | > 64 | > 64 | > 64 | > 64 | >64 µg/mL |
| Cc1ccc(CNc2nc3cnn(C)c3c(=O)[nH]2)cc1C [Compound 33, 5-((3,4-Dimethylbenzyl)amino)-1-methyl-1H-pyrazolo[4,3-d]pyrimidin-7(6H)-one] | 16 (≈ 56.5 µM) | 16 (≈ 56.5 µM) | 32 (≈ 113 µM) | 16 (≈ 56.5 µM) | 16 (≈ 56.5 µM) | 8 (≈ 28.2 µM) | > 64 | >64 µg/mL |
| COc1cc(CNc2nc3cnn(C)c3c(=O)[nH]2)ccc1Cl [Compound 34, 5-((4-Chloro-3-methoxybenzyl)amino)-1-methyl-1H-pyrazolo[4,3-d]pyrimidin-7(6H)-one] | > 64 | > 64 | > 64 | > 64 | 64 (≈ 200 µM) | > 64 | > 64 | >64 µg/mL |
| Cc1cc(CNc2nc3cnn(C)c3c(=O)[nH]2)ccc1Cl [Compound 35, 5-((4-Chloro-3-methylbenzyl)amino)-1-methyl-1H-pyrazolo[4,3-d]pyrimidin-7(6H)-one] | 2 (≈ 6.58 µM) | 4 (≈ 13.2 µM) | 8 (≈ 26.3 µM) | 4 (≈ 13.2 µM) | 4 (≈ 13.2 µM) | 2 (≈ 6.58 µM) | > 64 | >64 µg/mL |
| Cn1ncc2nc(NCc3cc(Cl)c(Cl)cn3)[nH]c(=O)c21.O=C(O)C(F)(F)F [Compound 36, 5-(((4,5-Dichloropyridin-2-yl)methyl)amino)-1-methyl-1H-pyrazolo[4,3-d]pyrimidin-7(6H)-one-2,2,2-trifluoroacetate] | > 64 | > 64 | > 64 | > 64 | > 64 | > 64 | > 64 | >64 µg/mL |
| Cn1ncc2nc(NCc3nc(Cl)c(Cl)[nH]3)[nH]c(=O)c21 [Compound 37, 5-(((4,5-Dichloro-1H-imidazol-2-yl)methyl)amino)-1-methyl-1H-pyrazolo[4,3-d]pyrimidin-7(6H)-one] | > 64 | > 64 | > 64 | > 64 | > 64 | > 64 | > 64 | >64 µg/mL |
| CCc1[nH]c(CNc2nc3cnn(C)c3c(=O)[nH]2)nc1Cl.Cl [Compound 38, 5-(((4-Chloro-5-ethyl-1H-imidazol-2-yl)methyl)amino)-1-methyl-1H-pyrazolo[4,3-d]pyrimidin-7(6H)-one hydrochloride] | > 64 | > 64 | > 64 | > 64 | > 64 | > 64 | > 64 | >64 µg/mL |
| Cn1ncc2nc(Nc3ccc4c(c3)COC4)[nH]c(=O)c21 [Compound 39, 5-((1,3-Dihydroisobenzofuran-5-yl)amino)-1-methyl-1H-pyrazolo[4,3-d]pyrimidin-7(6H)-one] | > 64 | > 64 | > 64 | > 64 | > 64 | > 64 | > 64 | >64 µg/mL |
| COC(=O)c1nn(C)c2c(=O)[nH]c(NCc3ccc(Cl)c(Cl)c3)nc12 [Compound 40, Methyl 5-((3,4-dichlorobenzyl)amino)-1-methyl-7-oxo-6,7-dihydro-1H-pyrazolo[4,3-d]pyrimidine-3-carboxylate] | > 64 | > 64 | > 64 | > 64 | > 64 | > 64 | > 64 | >64 µg/mL |
| Cn1nc(C(=O)O)c2nc(NCc3ccc(Cl)c(Cl)c3)[nH]c(=O)c21 [Compound 41, 5-((3,4-dichlorobenzyl)amino)-1-methyl-7-oxo-6,7-dihydro-1H-pyrazolo[4,3-d]pyrimidine-3-carboxylic acid] | > 64 | > 64 | > 64 | > 64 | > 64 | > 64 | > 64 | >64. ug/ml |
| CNC(=O)c1nn(C)c2c(=O)[nH]c(NCc3ccc(Cl)c(Cl)c3)nc12 [Compound 42, 5-((3,4-dichlorobenzyl)amino)-N, 1-dimethyl-7-oxo-6,7-dihydro-1H-pyrazolo[4,3-d]pyrimidine-3-carboxamide] | > 64 | > 64 | > 64 | > 64 | > 64 | > 64 | > 64 | >64 µg/mL |
